What was measured:
Escherichia coli [1] = assay: Antimicrobial activity against Escherichia coli 25922 assessed as absence bacterial growth measured after 18 to 24 hrs incubation in presence of 50% serum by NCCLS method; format: functional; conditions: time 18-24 hrs
Staphylococcus aureus [2] = assay: Antimicrobial activity against Methicillin-resistant Staphylococcus aureus 43300 assessed as absence bacterial growth measured after 18 to 24 hrs incubation by NCCLS method; format: functional; conditions: time 18-24 hrs
Acinetobacter baumannii [3] = assay: Antimicrobial activity against Acinetobacter baumannii 1.6769 assessed as absence bacterial growth measured after 18 to 24 hrs incubation by NCCLS method; format: functional; conditions: time 18-24 hrs
Escherichia coli [4] = assay: Antimicrobial activity against Escherichia coli 25922 assessed as absence bacterial growth measured after 18 to 24 hrs incubation in presence of 12.5% serum by NCCLS method; format: functional; conditions: time 18-24 hrs
Escherichia coli [5] = assay: Antimicrobial activity against Escherichia coli 25922 assessed as absence bacterial growth measured after 18 to 24 hrs incubation in presence of NaCl by NCCLS method; format: functional; conditions: time 18-24 hrs
Salmonella typhimurium [6] = assay: Antimicrobial activity against Salmonella typhimurium 14028 assessed as bacterial killing measured after 16 hrs incubation; format: functional, Salmonella enterica subsp. enterica serovar Typhimurium; conditions: Salmonella enterica
Staphylococcus aureus [7] = assay: Antimicrobial activity against Methicillin-resistant Staphylococcus aureus 43300 assessed as bacterial killing measured after 16 hrs incubation; format: functional
Escherichia coli [8] = assay: Antimicrobial activity against Escherichia coli 25922 assessed as bacterial killing measured after 16 hrs incubation; format: functional
Salmonella typhimurium [9] = assay: Antimicrobial activity against Salmonella typhimurium C7731 assessed as bacterial killing measured after 16 hrs incubation; format: functional, Salmonella enterica subsp. enterica serovar Typhimurium; conditions: Salmonella enterica
Enterococcus faecalis [10] = assay: Antimicrobial activity against Enterococcus faecalis 29212 assessed as absence bacterial growth measured after 18 to 24 hrs incubation by NCCLS method; format: functional; conditions: time 18-24 hrs
Staphylococcus aureus [11] = assay: Antimicrobial activity against Staphylococcus aureus 29213 assessed as absence bacterial growth measured after 18 to 24 hrs incubation by NCCLS method; format: functional; conditions: time 18-24 hrs
[12] = tested on: Staphylococcus epidermidis; assay: Antimicrobial activity against Staphylococcus epidermidis 12228 assessed as absence bacterial growth measured after 18 to 24 hrs incubation by NCCLS method; format: functional; conditions: time 18-24 hrs
Escherichia coli [13] = assay: Antimicrobial activity against Escherichia coli K88 assessed as absence bacterial growth measured after 18 to 24 hrs incubation by NCCLS method; format: functional; conditions: time 18-24 hrs
Listeria monocytogenes [14] = assay: Antimicrobial activity against Listeria monocytogenes 1.10753 assessed as bacterial killing measured after 16 hrs incubation; format: functional
Erythrocyte = assay: Hemolytic activity in human RBC at effective concentration measured after 1 hr by microplate reader analysis; format: toxicity, cell-based
[15] = Antimicrobial activity against Salmonella pullorum C7913 assessed as absence bacterial growth measured after 18 to 24 hrs incubation by NCCLS method; format: functional, Salmonella enterica subsp. enterica serovar Pullorum; conditions: Salmonella enterica, time 18-24 hrs
[16] = Cytotoxicity against porcine IPEC-J2 cells assessed as cell survival rate measured after 8 hrs by MTT assay; format: toxicity, cell-based, Sus scrofa; conditions: pig
Escherichia coli [17] = assay: Antimicrobial activity against Escherichia coli 25922 assessed as absence bacterial growth measured after 18 to 24 hrs incubation in presence of ZnCl2 by NCCLS method; format: functional; conditions: time 18-24 hrs
Pseudomonas aeruginosa [18] = assay: Antimicrobial activity against Pseudomonas aeruginosa 27853 assessed as absence bacterial growth measured after 18 to 24 hrs incubation by NCCLS method; format: functional; conditions: time 18-24 hrs
Bacillus cereus [19] = assay: Antimicrobial activity against Bacillus cereus 1.932 assessed as absence bacterial growth measured after 18 to 24 hrs incubation by NCCLS method; format: functional; conditions: time 18-24 hrs
Acinetobacter baumannii [20] = assay: Antimicrobial activity against Acinetobacter baumannii 1.6769 assessed as bacterial killing measured after 16 hrs incubation; format: functional
Salmonella typhimurium [21] = assay: Antimicrobial activity against Salmonella typhimurium 14028 assessed as absence bacterial growth measured after 18 to 24 hrs incubation by NCCLS method; format: functional, Salmonella enterica subsp. enterica serovar Typhimurium; conditions: Salmonella enterica, time 18-24 hrs
Staphylococcus aureus [22] = assay: Antimicrobial activity against Staphylococcus aureus 29213 assessed as bacterial killing measured after 16 hrs incubation; format: functional
Salmonella typhimurium [23] = assay: Antimicrobial activity against Salmonella typhimurium C7731 assessed as absence bacterial growth measured after 18 to 24 hrs incubation by NCCLS method; format: functional, Salmonella enterica subsp. enterica serovar Typhimurium; conditions: Salmonella enterica, time 18-24 hrs
Escherichia coli [24] = assay: Antimicrobial activity against Escherichia coli 25922 assessed as absence bacterial growth measured after 18 to 24 hrs incubation in presence of KCl by NCCLS method; format: functional; conditions: time 18-24 hrs
Escherichia coli [25] = assay: Antimicrobial activity against Escherichia coli K88 assessed as bacterial killing measured after 16 hrs incubation; format: functional
Enterococcus faecalis [26] = assay: Antimicrobial activity against Enterococcus faecalis 29212 assessed as bacterial killing measured after 16 hrs incubation; format: functional
Escherichia coli [27] = assay: Antimicrobial activity against Escherichia coli 25922 assessed as absence bacterial growth measured after 18 to 24 hrs incubation in presence of NH4Cl by NCCLS method; format: functional; conditions: time 18-24 hrs
[28] = Cytotoxicity against mouse RAW264.7 cells assessed as cell survival rate measured after 8 hrs by MTT assay; format: toxicity, cell-based
Listeria monocytogenes [29] = assay: Antimicrobial activity against Listeria monocytogenes 1.10753 assessed as absence bacterial growth measured after 18 to 24 hrs incubation by NCCLS method; format: functional; conditions: time 18-24 hrs
[30] = tested on: Staphylococcus epidermidis; assay: Antimicrobial activity against Staphylococcus epidermidis 12228 assessed as bacterial killing measured after 16 hrs incubation; format: functional
[31] = Cytotoxicity against human HEK-293T cells assessed as cell survival rate measured after 8 hrs by MTT assay; format: toxicity, cell-based
Pseudomonas aeruginosa [32] = assay: Antimicrobial activity against Pseudomonas aeruginosa 27853 assessed as bacterial killing measured after 16 hrs incubation; format: functional
Escherichia coli [33] = assay: Antimicrobial activity against Escherichia coli 25922 assessed as absence bacterial growth measured after 18 to 24 hrs incubation in presence of 25% serum by NCCLS method; format: functional; conditions: time 18-24 hrs
[34] = Antimicrobial activity against Salmonella pullorum C7913 assessed as bacterial killing measured after 16 hrs incubation; format: functional, Salmonella enterica subsp. enterica serovar Pullorum; conditions: Salmonella enterica
Bacillus cereus [35] = assay: Antimicrobial activity against Bacillus cereus 1.932 assessed as bacterial killing measured after 16 hrs incubation; format: functional
Escherichia coli [36] = assay: Antimicrobial activity against Escherichia coli 25922 assessed as absence bacterial growth measured after 18 to 24 hrs incubation in presence of MgCl2 by NCCLS method; format: functional; conditions: time 18-24 hrs
Staphylococcus aureus [37] = assay: Antimicrobial activity against Staphylococcus aureus 29213 assessed as absence bacterial growth measured after 18 to 24 hrs incubation by NCCLS m; format: functional; conditions: time 18-24 hrs
Escherichia coli [38] = assay: Antimicrobial activity against Escherichia coli 25922 assessed as absence bacterial growth measured after 18 to 24 hrs incubation by NCCLS method; format: functional; conditions: time 18-24 hrs
Staphylococcus aureus [39] = assay: Antimicrobial activity against Staphylococcus aureus 25923 assessed as bacterial killing measured after 16 hrs incubation; format: functional
Escherichia coli [40] = assay: Antimicrobial activity against Escherichia coli 25922 assessed as absence bacterial growth measured after 18 to 24 hrs incubation in presence of FeCl3 by NCCLS method; format: functional; conditions: time 18-24 hrs

H-GKLWLKGMKLWLKGGKLWLKG-NH2
4 µM: MIC (Enterococcus faecalis [10]) | MIC (Staphylococcus aureus [11]) | MIC [12] | MIC (Pseudomonas aeruginosa [18]) | MBC (Staphylococcus aureus [22]) | MIC (Salmonella typhimurium [23]) | MBC [30] | MIC (Staphylococcus aureus [37])
> 32 µM: MIC (Escherichia coli [1]) | MBC (Listeria monocytogenes [14]) | MIC (Listeria monocytogenes [29]) | MIC (Escherichia coli [33])
1 µM: MIC (Acinetobacter baumannii [3]) | MIC (Escherichia coli [13]) | MIC [15] | MIC (Bacillus cereus [19]) | MBC (Acinetobacter baumannii [20]) | MBC (Escherichia coli [25]) | MBC [34]
32 µM: MIC (Escherichia coli [4])
21 µM: IC50 at 8 h [16]
2 µM: MIC (Staphylococcus aureus [2]) | MBC (Salmonella typhimurium [6]) | MBC (Staphylococcus aureus [7]) | MBC (Escherichia coli [8]) | MIC (Escherichia coli [17]) | MIC (Salmonella typhimurium [21]) | MIC (Escherichia coli [24]) | MIC (Escherichia coli [27]) | MBC (Bacillus cereus [35]) | MIC (Escherichia coli [38]) | MIC (Escherichia coli [40])
128 µM: HC10 (Erythrocyte)
8 µM: MIC (Escherichia coli [5]) | MBC (Salmonella typhimurium [9]) | MBC (Enterococcus faecalis [26]) | MBC (Pseudomonas aeruginosa [32]) | MIC (Escherichia coli [36])
16 µM: MBC (Staphylococcus aureus [39])
> 64 µM: IC50 at 8 h [28] | IC50 at 8 h [31]

H-GKLWLKGFKLWLKGGKLWLKG-NH2
16 µM: MIC (Escherichia coli [4]) | MBC (Pseudomonas aeruginosa [32])
31 µM: IC50 at 8 h [28]
35.7 µM: IC50 at 8 h [16]
0.5 µM: MIC [15]
4 µM: MIC (Escherichia coli [5]) | MIC (Staphylococcus aureus [11]) | MIC [12] | MIC (Pseudomonas aeruginosa [18]) | MBC (Staphylococcus aureus [22]) | MIC (Escherichia coli [24]) | MBC (Enterococcus faecalis [26]) | MBC [30] | MIC (Escherichia coli [36]) | MIC (Staphylococcus aureus [37]) | MBC (Staphylococcus aureus [39])
128 µM: HC10 (Erythrocyte)
36.6 µM: IC50 at 8 h [31]
8 µM: MBC (Salmonella typhimurium [6]) | MBC (Staphylococcus aureus [7]) | MIC (Salmonella typhimurium [23])
2 µM: MIC (Staphylococcus aureus [2]) | MIC (Acinetobacter baumannii [3]) | MBC (Escherichia coli [8]) | MIC (Enterococcus faecalis [10]) | MIC (Escherichia coli [17]) | MIC (Bacillus cereus [19]) | MBC (Acinetobacter baumannii [20]) | MIC (Salmonella typhimurium [21]) | MIC (Escherichia coli [27]) | MBC [34] | MBC (Bacillus cereus [35]) | MIC (Escherichia coli [38]) | MIC (Escherichia coli [40])
1 µM: MIC (Escherichia coli [13]) | MBC (Escherichia coli [25])
32 µM: MBC (Salmonella typhimurium [9])
> 32 µM: MIC (Escherichia coli [1]) | MBC (Listeria monocytogenes [14]) | MIC (Listeria monocytogenes [29]) | MIC (Escherichia coli [33])

H-GKLWLKGWKLWLKGGKLWLKG-NH2
4 µM: MBC (Salmonella typhimurium [6]) | MBC (Staphylococcus aureus [7]) | MBC (Staphylococcus aureus [22]) | MBC (Enterococcus faecalis [26]) | MBC [30] | MBC (Pseudomonas aeruginosa [32]) | MBC (Bacillus cereus [35]) | MIC (Staphylococcus aureus [37])
16 µM: MIC (Escherichia coli [4])
1 µM: MBC (Escherichia coli [8]) | MIC (Escherichia coli [13]) | MIC [15] | MIC (Escherichia coli [17]) | MIC (Bacillus cereus [19]) | MIC (Escherichia coli [24]) | MBC (Escherichia coli [25]) | MBC [34] | MIC (Escherichia coli [38]) | MIC (Escherichia coli [40])
61.9 µM: IC50 at 8 h [31]
3.9 µM: IC50 at 8 h [16]
53.5 µM: IC50 at 8 h [28]
2 µM: MIC (Staphylococcus aureus [2]) | MIC (Acinetobacter baumannii [3]) | MIC (Escherichia coli [5]) | MIC (Enterococcus faecalis [10]) | MIC (Staphylococcus aureus [11]) | MIC [12] | MIC (Pseudomonas aeruginosa [18]) | MBC (Acinetobacter baumannii [20]) | MIC (Salmonella typhimurium [21]) | MIC (Salmonella typhimurium [23]) | MIC (Escherichia coli [27]) | MIC (Escherichia coli [36])
8 µM: MBC (Salmonella typhimurium [9]) | MBC (Staphylococcus aureus [39])
32 µM: MIC (Escherichia coli [1]) | HC10 (Erythrocyte) | MIC (Escherichia coli [33])
> 32 µM: MBC (Listeria monocytogenes [14]) | MIC (Listeria monocytogenes [29])

H-AKLWLKAAKLWLKAAKLWLKA-NH2
8 µM: MBC [34]
2 µM: MIC (Staphylococcus aureus [2]) | MBC (Salmonella typhimurium [6]) | MIC (Staphylococcus aureus [11]) | MIC [12] | MIC [15] | MIC (Pseudomonas aeruginosa [18]) | MIC (Bacillus cereus [19]) | MBC (Staphylococcus aureus [22]) | MBC (Bacillus cereus [35]) | MIC (Staphylococcus aureus [37])
16 µM: MIC (Listeria monocytogenes [29])
32 µM: MBC (Listeria monocytogenes [14])
1 µM: MIC (Acinetobacter baumannii [3]) | MBC (Escherichia coli [8]) | MBC (Acinetobacter baumannii [20]) | MIC (Salmonella typhimurium [21]) | MIC (Escherichia coli [38])
0.5 µM: MBC (Salmonella typhimurium [9]) | MIC (Escherichia coli [13]) | MIC (Salmonella typhimurium [23]) | MBC (Escherichia coli [25])
4 µM: MBC (Staphylococcus aureus [7]) | MIC (Enterococcus faecalis [10]) | MBC (Enterococcus faecalis [26]) | MBC [30] | MBC (Pseudomonas aeruginosa [32]) | MBC (Staphylococcus aureus [39])

— ChEMBL document CHEMBL5518215, “Unlocking Antibacterial Potential: Key-Site-Based Regulation of Antibacterial Spectrum of Peptides” (J Med Chem, 2024)
